Test results: patent US20220330549A1, “USE OF N-BENZYLBENZAMIDE-BASED COMPOUND AS HERBICIDE” (Northwest A&F University, priority 2020, published 2022)

Assays:
Format in all cases: in vivo
[1] = tested on: Barnyard grass; experiment: Herbicidal activity test for indoor pre-emergence soil treatment; parameters: key: level 1-9; higher = more weed remaining vs blank control; conditions: 150 g a.i./ha, visual inspection 21 days after treatment
How it was run: (§1)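 Pre-emergence soil spray per NY/T 1155.3-2006: weed seeds sown in moistened neutral sandy loam (organic content ≤2%), covered with 0.5–2.0 cm soil, then sprayed 24 h later with a water-diluted 10% emulsifiable concentrate at 150 g(a.i.)/ha. Visual rating after 21 days on a 1–9 scale.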

[2] = tested on: Piemarker; experiment: as above; parameters: key: level 1-9; higher = more weed remaining vs blank control; conditions: 150 g a.i./ha, visual inspection 21 days after treatment
How it was run: as §1

[3] = tested on: green bristlegrass; experiment: as above; parameters: key: level 1-9; higher = more weed remaining vs blank control; conditions: 150 g a.i./ha, visual inspection 21 days after treatment
How it was run: as §1

[4] = tested on: Amaranthus retroflexus; experiment: as above; parameters: key: 1-9 levels; higher = more weed remaining vs blank control; conditions: 150 g a.i./ha, visual inspection 21 days after treatment
How it was run: as §1

[5] = tested on: Digitaria sanguinalis; experiment: as above; parameters: key: 1-9 levels; higher = more weed remaining vs blank control; conditions: 150 g a.i./ha, visual inspection 21 days after treatment
How it was run: as §1

[6] = tested on: Humulus scandens; experiment: as above; conditions: 150 g a.i./ha, visual inspection 21 days after treatment
How it was run: as §1

[7] = tested on: Amaranthus retroflexus; experiment: Herbicidal activity test for indoor post-emergence spraying on stems and leaves; parameters: key: grade level by weed remaining vs blank control, e.g. 5 = 10.1-15%; conditions: 150 g a.i./ha, visual inspection 21 days after treatment
How it was run: (§2)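 Following national standard NY/T 1155.4-2006, seedlings raised in a greenhouse receive stem-and-leaf spraying after emergence; 21 days on, surviving weed is compared by eye with the blank control area and assigned a graded level (e.g., level 6 = 15.1–25%).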

[8] = tested on: Barnyard grass; experiment: as above; parameters: key: grade level by weed remaining vs blank control, e.g. 5 = 10.1-15%; conditions: 150 g a.i./ha, visual inspection 21 days after treatment
How it was run: as §2

[9] = tested on: Digitaria sanguinalis; experiment: as above; parameters: key: grade level by weed remaining vs blank control, e.g. 5 = 10.1-15%; conditions: 150 g a.i./ha, visual inspection 21 days after treatment
How it was run: as §2

[10] = tested on: Humulus scandens; experiment: as above; parameters: key: grade level by weed remaining vs blank control, e.g. 5 = 10.1-15%; conditions: 150 g a.i./ha, visual inspection 21 days after treatment
How it was run: as §2

[11] = tested on: Piemarker; experiment: as above; parameters: key: grade level by weed remaining vs blank control, e.g. 5 = 10.1-15%; conditions: 150 g a.i./ha, visual inspection 21 days after treatment
How it was run: as §2

[12] = tested on: green bristlegrass; experiment: as above; parameters: key: grade level by weed remaining vs blank control, e.g. 5 = 10.1-15%; conditions: 150 g a.i./ha, visual inspection 21 days after treatment
How it was run: as §2

[13] = tested on: Broadleaf weed; experiment: Post-emergence herbicidal activity test in a paddy field; parameters: key: level scale; higher level = more weed left vs blank control; conditions: 150 g a.i./ha (penoxsulam control 250 g(a.i.)/h)
How it was run: (§3)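 Efficacy was visually estimated 15 and 30 days after spraying, grading weed coverage relative to an untreated neighbouring plot (level 2 = 0 to 2.5%, level 9 = 67.6 to 100%). Treatments were 150 g(a.i.)/ha from 10% emulsifiable concentrates applied at the 4-5 leaf rice stage, four repeats of 50 m^2 each.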

[14] = tested on: Cyperaceae; experiment: as above; parameters: key: level scale; higher level = more weed left vs blank control; conditions: 150 g a.i./ha (penoxsulam control 250 g(a.i.)/h)
How it was run: as §3

[15] = tested on: Gramineae; experiment: as above; parameters: key: level scale; higher level = more weed left vs blank control; conditions: 150 g a.i./ha (penoxsulam control 250 g(a.i.)/h)
How it was run: as §3

[16] = tested on: Acalypha australis; experiment: Field test for weed control in a corn field; conditions: for Post-emergence weed control effect, Acalypha australis: 150 g a.i./ha, after treatment; for controlling effect on Acalypha australis: 150 g(a.i.)/ha, 21 days after treatments
How it was run: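 Herbicidal activity against weeds was assessed in corn plots by the GB/T 17980.42-2000 method. Corn at the 2–5 leaf stage received water sprays of 10% emulsifiable concentrates at 150 g(a.i.)/ha, four repeats per treatment over 20 m^2. A 25% mesotrione oil dispersion was the reference. Damage symptoms and severity were rated on levels 1-9 relative to weeds in the blank control area.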

[17] = tested on: Amaranthus retroflexus; experiment: Field test for weed control in a corn field; conditions: for Post-emergence weed control effect, Amaranthus retroflexus: 150 g a.i./ha, 30 days after treatment; for controlling effect on Amaranthus retroflexus: 150 g(a.i.)/ha, 21 days after treatments
How it was run: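 Post-emergence control of Amaranthus retroflexus was assessed in corn plots using the GB/T 17980.42-2000 method. Emulsifiable concentrates (10%) in water were applied by spraying at the 2- to 5-leaf crop stage on 20 m^2 plots, four replicates each, alongside a mesotrione 25% oil dispersion reference. Herbicidal activity was scored on 1-9 levels by weed amount relative to blank control areas.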

[18] = tested on: Barnyard grass; experiment: Field test for weed control in a corn field; conditions: for Post-emergence weed control effect, Barnyard grass: 150 g a.i./ha, 30 days after treatment; for controlling effect on barnyard grass: 150 g(a.i.)/ha, 21 days after treatments
How it was run: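 Herbicidal activity against barnyard grass was assessed in corn field plots of 20 m^2, with four replicates per treatment. Compounds were applied as water-diluted 10% emulsifiable concentrates at 150 g(a.i.)/ha at the 2-5 leaf corn stage, with 25% mesotrione oil dispersion as the reference agent. Damage was scored on a 1-9 scale against untreated blank plots.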

[19] = tested on: Chenopodium album; experiment: Field test for weed control in a corn field; conditions: for Post-emergence weed control effect, Chenopodium album: 150 g a.i./ha, after treatment; for controlling effect on Chenopodium album: 150 g(a.i.)/ha, 21 days after treatments
How it was run: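 Field weed-control testing in corn, run per GB/T 17980.42-2000, scored Chenopodium album on a 1-9 level scale, where each level matches a percentage range of weed remaining relative to the blank control area. Sprays of 10% emulsifiable concentrates in water delivered 150 g(a.i.)/ha at the corn 2-leaf to 5-leaf stage on 20 m^2 plots, four replicates each. Mesotrione 25% oil dispersion served as reference.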

[20] = tested on: Convolvulus arvensis; experiment: Field test for weed control in a corn field; conditions: for Post-emergence weed control effect, Convolvulus arvensis: 150 g a.i./ha, after treatment; for controlling effect on Convolvulus arvensis: 150 g(a.i.)/ha, 21 days after treatments
How it was run: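 Post-emergence herbicidal activity on Convolvulus arvensis was scored in a corn field on a 1-9 scale, based on symptoms and damage severity. Each level corresponds to the weed remaining as a percentage of the blank control area. Sprays of 10% emulsifiable concentrate at 150 g(a.i.)/ha went on at the corn 2–5 leaf stage, with four replicates of 20 m^2 per treatment.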

[21] = tested on: Digitaria sanguinalis; experiment: Field test for weed control in a corn field; conditions: for Post-emergence weed control effect, Digitaria sanguinalis: 150 g a.i./ha, after treatment; for controlling effect on Digitaria sanguinalis: 150 g(a.i.)/ha, 21 days after treatments
How it was run: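 Field trial in a corn field following GB/T 17980.42-2000. Test compounds were formulated as 10% emulsifiable concentrates, diluted in water and sprayed post-emergence at 150 g(a.i.)/ha when corn had 2 to 5 leaves, with 4 replicates on 20 m^2 plots. Control of Digitaria sanguinalis was scored on a 1-9 scale based on weed damage relative to the untreated blank area.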

[22] = tested on: Portulaca oleracea; experiment: Field test for weed control in a corn field; conditions: for Post-emergence weed control effect, Portulaca oleracea: 150 g a.i./ha, after treatment; for controlling effect on Portulaca oleracea: 150 g(a.i.)/ha, 21 days after treatments
How it was run: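 Post-emergence weed control was evaluated in a corn field by the GB/T 17980.42-2000 method. Emulsifiable concentrates (10%) in water were applied as sprays at 150 g(a.i.)/ha at the 2-5 leaf corn stage, in four replicate 20 m^2 plots. A 25% mesotrione oil dispersion served as control agent. Effects were graded 1-9 relative to weed remaining in blank control areas.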

[23] = tested on: Solanum nigrum; experiment: Field test for weed control in a corn field; conditions: for Post-emergence weed control effect, Solanum nigrum: 150 g a.i./ha, 30 days after treatment; for controlling effect on Solanum nigrum: 150 g(a.i.)/ha, 21 days after treatments
How it was run: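 In a corn field trial based on GB/T 17980.42-2000, 10% emulsifiable concentrates diluted in water were sprayed at 150 g(a.i.)/ha at the 2 to 5 leaf stage of corn. Each treatment used 20 m^2 plots and was repeated 4 times, with 25% mesotrione oil dispersion as the reference agent. Solanum nigrum damage was scored on a 1-9 scale against blank control plots.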

[24] = tested on: goosegrass; experiment: Field test for weed control in a corn field; conditions: for Post-emergence weed control effect, Goose grass: 150 g a.i./ha, after treatment; for controlling effect on goosegrass: 150 g(a.i.)/ha, 21 days after treatments
How it was run: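 In this field trial in corn, run per GB/T 17980.42-2000, test agents prepared as 10% emulsifiable concentrates were applied in water as sprays at 150 g(a.i.)/ha at the 2- to 5-leaf corn stage. Each treatment covered 20 m^2 and was repeated 4 times. Goosegrass control was scored 1-9 relative to weed remaining in blank control areas.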

[25] = tested on: green bristlegrass; experiment: Field test for weed control in a corn field; conditions: for Post-emergence weed control effect, Green bristlegrass: 150 g a.i./ha, after treatment; for controlling effect on green bristlegrass: 150 g(a.i.)/ha, 21 days after treatments
How it was run: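 Herbicidal activity against green bristlegrass was assessed in corn field plots of 20 m^2 per GB/T 17980.42-2000. Test agents, formulated as 10% emulsifiable concentrates, were applied in water at 150 g(a.i.)/ha at the corn 2 leaves to 5 leaves stage, repeated 4 times. A 25% mesotrione oil dispersion served as the control agent, and weed damage was rated on levels 1-9.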

[26] = tested on: nutgrass flatsedge; experiment: Field test for weed control in a corn field; conditions: for Post-emergence weed control effect, Nutgrass flatsedge: 150 g a.i./ha, after treatment; for controlling effect on nutgrass flatsedge: 150 g(a.i.)/ha, 21 days after treatments
How it was run: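 Herbicidal effect on nutgrass flatsedge was measured in a field planted with corn, using the GB/T 17980.42-2000 method. Emulsifiable concentrates (10%) in water were sprayed at 150 g(a.i.)/ha during the 2-leaf to 5-leaf corn stage, on 20 m^2 plots repeated 4 times. 25% mesotrione oil dispersion was the control agent. Activity was scored from 1 to 9 by weed remaining relative to blank control plots.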

SMILES | Herbicidal Activity Barnyard grass [1] | Herbicidal Activity Piemarker [2] | Herbicidal Activity Green bristlegrass [3] | Herbicidal Activity Amaranthus retroflexus [4] | Herbicidal Activity Digitaria sanguinalis [5] | Herbicidal Activity Humulus scandens [6] | Herbicidal Activity Amaranthus retroflexus [7] | Herbicidal Activity Barnyard grass [8] | Herbicidal Activity Digitaria sanguinalis [9] | Herbicidal Activity Humulus scandens [10] | Herbicidal Activity Piemarker [11] | Herbicidal Activity Green bristlegrass [12] | Herbicidal activity 15 days after treatment Broadleaf weed [13] | Herbicidal activity 30 days after treatment Broadleaf weed [13] | Herbicidal activity 15 days after treatment Cyperaceae [14] | Herbicidal activity 30 days after treatment Cyperaceae [14] | Herbicidal activity 15 days after treatment Gramineae [15] | Herbicidal activity 30 days after treatment Gramineae [15] | Post-emergence weed control effect, Acalypha australis [16] | controlling effect on Acalypha australis [16] | also measured
Cc1cccc(C(=O)NCc2cc(F)cc(Cl)c2)n1 [Compound B27] | 1 | 1 | 1 | 1 | 1 | 1 | 1 | 1 | 1 | 1 | 1 | 1 | 1 | 1 | 1 | 1 | 1 | 1 | 1 | 1 | Post-emergence weed control effect, Amaranthus retroflexus [17]: 1; controlling effect on Amaranthus retroflexus [17]: 1; Post-emergence weed control effect, Barnyard grass [18]: 1; controlling effect on barnyard grass [18]: 1; Post-emergence weed control effect, Chenopodium album [19]: 1; controlling effect on Chenopodium album [19]: 1; Post-emergence weed control effect, Convolvulus arvensis [20]: 1; controlling effect on Convolvulus arvensis [20]: 1; Post-emergence weed control effect, Digitaria sanguinalis [21]: 1; controlling effect on Digitaria sanguinalis [21]: 1; Post-emergence weed control effect, Portulaca oleracea [22]: 1; controlling effect on Portulaca oleracea [22]: 1; Post-emergence weed control effect, Solanum nigrum [23]: 1; controlling effect on Solanum nigrum [23]: 1; Post-emergence weed control effect, Goose grass [24]: 1; controlling effect on goosegrass [24]: 1; Post-emergence weed control effect, Green bristlegrass [25]: 1; controlling effect on green bristlegrass [25]: 1; Post-emergence weed control effect, Nutgrass flatsedge [26]: 1; controlling effect on nutgrass flatsedge [26]: 1
Cc1cccc(C(=O)NCc2ccc(F)c(Cl)c2)n1 [Compound B30] | 1 | 1 | 1 | 1 | 1 | 2 (equivalent to 0 to 2.5% of the weed in the blank control area) | 1 | 1 | 1 | 1 | 1 | 1 | 1 | 1 | 1 | 2 (equivalent to 0 to 2.5% of the weed in the blank control area) | 1 | 1 | 1 | 1 | Post-emergence weed control effect, Amaranthus retroflexus [17]: 1; controlling effect on Amaranthus retroflexus [17]: 1; Post-emergence weed control effect, Barnyard grass [18]: 1; controlling effect on barnyard grass [18]: 1; Post-emergence weed control effect, Chenopodium album [19]: 1; controlling effect on Chenopodium album [19]: 1; Post-emergence weed control effect, Convolvulus arvensis [20]: 1; controlling effect on Convolvulus arvensis [20]: 1; Post-emergence weed control effect, Digitaria sanguinalis [21]: 1; controlling effect on Digitaria sanguinalis [21]: 1; Post-emergence weed control effect, Portulaca oleracea [22]: 1; controlling effect on Portulaca oleracea [22]: 1; Post-emergence weed control effect, Solanum nigrum [23]: 1; controlling effect on Solanum nigrum [23]: 1; Post-emergence weed control effect, Goose grass [24]: 1; controlling effect on goosegrass [24]: 1; Post-emergence weed control effect, Green bristlegrass [25]: 1; controlling effect on green bristlegrass [25]: 1; Post-emergence weed control effect, Nutgrass flatsedge [26]: 1; controlling effect on nutgrass flatsedge [26]: 1
